In data set [1] the target is T1, NaV1.5 (Homo sapiens (Human), UniProt Q14524). Description: Sodium Influx Assay (Flux) NaV1.5.
Data set [2] has as its target NaV1.1 (Homo sapiens (Human), UniProt P35498). The data set can be described thus: Sodium Influx Assay (Flux) NaV1.1. It is filed as cell-based. The settings on record: Trex HEK293 cells, ANG2 dye, inhibition of sodium ion influx.
Data set [3] concerns the target NaV1.6 (Homo sapiens (Human), UniProt Q9UQD0). Description: Sodium Influx Assay (Flux) NaV1.6. The settings on record: Trex HEK293 cells, ANG2 dye, inhibition of sodium ion influx. It is filed as cell-based.
The target in data set [4] is T1, NaV1.5.
The mark [5] stands for this setting: read-out: Flux NaV1.5 IC50, Trex HEK293 cells, ANG2 dye, inhibition of sodium ion influx.

Read-outs that look alike come from different tables or passages of the source.

Among the data in US10745392B2, “Benzenesulfonamide compounds and their use as therapeutic agents” (Xenon Pharmaceuticals Inc., priority 2018, dated 2020) are IC50 values, retold here.

Broadly, the IC50 is the concentration at which inhibition is half-maximal.

T1 sequence (Q14524 other isoform, or with tags, fused parts or gaps): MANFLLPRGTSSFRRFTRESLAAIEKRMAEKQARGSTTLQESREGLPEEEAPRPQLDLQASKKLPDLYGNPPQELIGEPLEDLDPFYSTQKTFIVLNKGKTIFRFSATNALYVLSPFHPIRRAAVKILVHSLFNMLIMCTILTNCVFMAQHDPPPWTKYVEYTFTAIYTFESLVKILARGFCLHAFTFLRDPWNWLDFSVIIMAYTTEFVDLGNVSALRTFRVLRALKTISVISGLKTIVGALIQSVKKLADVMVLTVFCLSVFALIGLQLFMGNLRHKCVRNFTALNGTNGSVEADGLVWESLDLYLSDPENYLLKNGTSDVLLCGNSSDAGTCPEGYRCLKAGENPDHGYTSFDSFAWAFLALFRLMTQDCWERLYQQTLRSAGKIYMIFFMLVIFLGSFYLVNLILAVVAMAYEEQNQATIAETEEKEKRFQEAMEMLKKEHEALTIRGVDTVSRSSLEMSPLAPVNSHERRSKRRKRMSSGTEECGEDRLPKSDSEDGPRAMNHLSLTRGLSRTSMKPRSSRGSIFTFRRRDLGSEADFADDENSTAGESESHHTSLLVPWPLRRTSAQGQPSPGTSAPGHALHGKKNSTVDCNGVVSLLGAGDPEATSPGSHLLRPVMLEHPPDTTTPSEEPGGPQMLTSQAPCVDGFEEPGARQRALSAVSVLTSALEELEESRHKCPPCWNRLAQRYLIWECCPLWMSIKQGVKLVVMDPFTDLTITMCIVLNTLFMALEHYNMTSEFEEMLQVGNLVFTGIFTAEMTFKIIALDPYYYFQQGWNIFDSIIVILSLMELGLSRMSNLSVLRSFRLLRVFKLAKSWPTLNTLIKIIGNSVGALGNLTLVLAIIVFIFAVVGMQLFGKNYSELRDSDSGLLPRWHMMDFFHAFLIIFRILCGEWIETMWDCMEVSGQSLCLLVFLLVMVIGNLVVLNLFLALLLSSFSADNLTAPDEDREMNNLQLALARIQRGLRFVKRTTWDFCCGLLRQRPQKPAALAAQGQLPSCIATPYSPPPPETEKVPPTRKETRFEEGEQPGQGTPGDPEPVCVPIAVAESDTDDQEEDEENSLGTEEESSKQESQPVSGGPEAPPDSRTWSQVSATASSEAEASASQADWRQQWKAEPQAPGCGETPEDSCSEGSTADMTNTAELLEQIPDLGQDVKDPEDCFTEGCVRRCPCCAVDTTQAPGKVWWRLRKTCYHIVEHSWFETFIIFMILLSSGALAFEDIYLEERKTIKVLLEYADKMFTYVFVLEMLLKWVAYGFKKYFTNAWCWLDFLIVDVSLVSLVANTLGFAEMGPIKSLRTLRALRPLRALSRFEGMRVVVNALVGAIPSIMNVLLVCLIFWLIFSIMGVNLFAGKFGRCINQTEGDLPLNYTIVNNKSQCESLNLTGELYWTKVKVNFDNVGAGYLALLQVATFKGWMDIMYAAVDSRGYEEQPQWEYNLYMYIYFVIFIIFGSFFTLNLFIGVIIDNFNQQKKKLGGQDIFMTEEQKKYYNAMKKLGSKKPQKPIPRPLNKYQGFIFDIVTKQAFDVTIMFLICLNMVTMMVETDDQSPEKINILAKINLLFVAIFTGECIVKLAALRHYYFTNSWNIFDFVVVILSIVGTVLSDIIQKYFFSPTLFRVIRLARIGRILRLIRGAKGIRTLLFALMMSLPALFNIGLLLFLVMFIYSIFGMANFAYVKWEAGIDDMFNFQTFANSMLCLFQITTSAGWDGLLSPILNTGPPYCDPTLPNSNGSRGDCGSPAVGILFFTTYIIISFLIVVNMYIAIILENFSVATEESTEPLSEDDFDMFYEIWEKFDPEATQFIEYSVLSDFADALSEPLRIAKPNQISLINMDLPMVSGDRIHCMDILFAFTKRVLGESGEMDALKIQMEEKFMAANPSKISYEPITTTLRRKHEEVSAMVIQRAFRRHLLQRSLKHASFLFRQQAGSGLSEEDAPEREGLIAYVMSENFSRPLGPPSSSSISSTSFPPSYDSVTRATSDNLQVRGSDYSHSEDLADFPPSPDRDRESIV

Take `C[C@H](c1c(F)ccc(F)c1CNc1cc(F)c(S(=O)(=O)Nc2cscn2)c(F)c1)N1C2CCC1CC2` (single isomer, unassigned) [Example 15b]: the IC50 is greater than 30 µM in data set [1], greater than 30 µM in data set [2] and 0.821 µM in data set [3].
As to `COc1ccc(F)c(CNc2ccc(S(=O)(=O)Nc3cscn3)c(F)c2F)c1CN1C2CCC1CC2` [Example 12, 4-((2-((7-azabicyclo[2.2.1]heptan-7-yl)methyl)-6-fluoro-3-methoxybenzyl)amino)-2,3-difluoro-N-(thiazol-4-yl)benzenesulfonamide 2,2,2-trifluoroacetate], the figures for the 50% inhibitory concentration (IC50) in data set [2], in data set [4] and in data set [3] were greater than 30 µM, greater than 30 µM and 0.054 µM, respectively.
Turning to `Cc1c(NCc2c(F)cccc2CN2C3CCC2CC3)cc(F)c(S(=O)(=O)Nc2ccon2)c1F` [Example 4, 4-((2-((7-azabicyclo[2.2.1]heptan-7-yl)methyl)-6-fluorobenzyl)amino)-2,6-difluoro-N-(isoxazol-3-yl)-3-methylbenzenesulfonamide], the IC50 in data set [2] was 17 µM; in data set [4], greater than 30 µM; in data set [3], 0.047 µM.
The like results for `O=S(=O)(Nc1ccsn1)c1ccc(NCc2c(F)cccc2CN2C3CCC2CC3)c(F)c1F` [Example 13, 4-((2-((7-azabicyclo[2.2.1]heptan-7-yl)methyl)-6-fluorobenzyl)amino)-2,3-difluoro-N-(isothiazol-3-yl)benzenesulfonamide 2,2,2-trifluoroacetate] were, in that order, 23.7 µM, greater than 30 µM and 0.27 µM.
Taken in the same sequence, the figures for `CC(c1c(F)ccc(F)c1CNc1cc(F)c(S(=O)(=O)Nc2cscn2)c(F)c1)N1C2CCC1CC2` (stereo not drawn) [Example 14, 4-((2-(1-(7-azabicyclo[2.2.1]heptan-7-yl)ethyl)-3,6-difluorobenzyl)amino)-2,6-difluoro-N-(thiazol-4-yl)benzenesulfonamide 2,2,2-trifluoroacetate] were greater than 30 µM, 12.8 µM and 0.653 µM.
In the case of `O=S(=O)(Nc1cscn1)c1ccc(NCc2c(F)cccc2CN2C3CCC2CC3)c(Cl)c1F` [Example 6, 4-((2-((7-azabicyclo[2.2.1]heptan-7-yl)methyl)-6-fluorobenzyl)amino)-3-chloro-2-fluoro-N-(thiazol-4-yl)benzenesulfonamide 2,2,2-trifluoroacetate], the results for the IC50 in data set [2], in data set [4] and in data set [3] were 5.23 µM, 15.3 µM and 0.095 µM, respectively.
The like results for `O=S(=O)(Nc1cscn1)c1c(F)cc(NCc2c(F)cccc2CN2C3CCC2CC3)cc1F` [Example 9, 4-((2-((7-azabicyclo[2.2.1]heptan-7-yl)methyl)-6-fluorobenzyl)amino)-2,6-difluoro-N-(thiazol-4-yl)benzenesulfonamide 2,2,2-trifluoroacetate] were, in that order, 7.84 µM, 20.4 µM and 0.026 µM.
Consider `CC(C)Oc1ccc(F)c(CNc2cc(F)c(S(=O)(=O)Nc3cscn3)c(F)c2)c1CN(C)C(C)C` [Example 8, 2,6-difluoro-4-((6-fluoro-3-isopropoxy-2-((isopropyl(methyl)amino)methyl)benzyl)amino)-N-(thiazol-4-yl)benzenesulfonamide], for which the IC50 in data set [1] (setting [5]) was 11.1 µM; in data set [2], 28 µM; in data set [3] it was 0.026 µM.
On to `O=S(=O)(Nc1ccsn1)c1c(F)cc(NCc2c(F)cccc2CN2C3CCC2CC3)cc1F` [Example 1, 4-((2-((7-azabicyclo[2.2.1]heptan-7-yl)methyl)-6-fluorobenzyl)amino)-2,6-difluoro-N-(isothiazol-3-yl)benzenesulfonamide], for which the figures for the IC50 in data set [2], in data set [4] and in data set [3] were 9.6 µM, greater than 30 µM and 0.015 µM, respectively.
Regarding `COc1ccc(F)c(CNc2cc(F)c(S(=O)(=O)Nc3cscn3)c(F)c2)c1CN1C2CCC1CC2` [Example 11, 4-((2-((7-azabicyclo[2.2.1]heptan-7-yl)methyl)-6-fluoro-3-methoxybenzyl)amino)-2,6-difluoro-N-(thiazol-4-yl)benzenesulfonamide 2,2,2-trifluoroacetate], the IC50 in data set [2] worked out at 5.91 µM; in data set [4], 27.5 µM; in data set [3], 0.002 µM.
As for `C[C@@H](c1c(F)ccc(F)c1CNc1cc(F)c(S(=O)(=O)Nc2cscn2)c(F)c1)N1C2CCC1CC2` (single isomer, unassigned) [Example 15a], the IC50 in data set [1] was greater than 30 µM; in data set [2], greater than 30 µM; in data set [3] it was 0.53 µM.
Turning to `COc1ccc(F)c(CNc2cc(F)c(S(=O)(=O)Nc3cscn3)c(F)c2)c1CN(C)C(C)C` [Example 2, 2,6-difluoro-4-((6-fluoro-2-((isopropyl(methyl)amino)methyl)-3-methoxybenzyl)amino)-N-(thiazol-4-yl)benzenesulfonamide], the figures for the IC50 in data set [1] (setting [5]), in data set [2] and in data set [3] were 28.3 µM, 27.5 µM and 0.027 µM, respectively.
Taken in the same sequence, the figures for `COc1ccc(F)c(CNc2ccc(S(=O)(=O)Nc3cscn3)c(F)c2F)c1CN(C)C(C)C` [Example 16, 2,3-difluoro-4-((6-fluoro-2-((isopropyl(methyl)amino)methyl)-3-methoxybenzyl)amino)-N-(thiazol-4-yl)benzenesulfonamide] were 9.46 µM, greater than 30 µM and 0.031 µM.
With `O=S(=O)(Nc1cscn1)c1c(F)cc(NCc2c(F)ccc(F)c2CN2C3CCC2CC3)cc1F` [Example 10, 4-((2-((7-azabicyclo[2.2.1]heptan-7-yl)methyl)-3,6-difluorobenzyl)amino)-2,6-difluoro-N-(thiazol-4-yl)benzenesulfonamide], the IC50 was found to be 7.93 µM in data set [2], 25.4 µM in data set [4] and 0.028 µM in data set [3].
In the case of `Cc1c(NCc2c(F)cccc2CN2C3CCC2CC3)ccc(S(=O)(=O)Nc2cscn2)c1F` [Example 7, 4-((2-((7-azabicyclo[2.2.1]heptan-7-yl)methyl)-6-fluorobenzyl)amino)-2-fluoro-3-methyl-N-(thiazol-4-yl)benzenesulfonamide 2,2,2-trifluoroacetate], the IC50 in data set [2] was found to be 7.44 µM; in data set [4], 21.3 µM; in data set [3] it was 0.181 µM.
Take `COc1ccc(F)c(CNc2cc(F)c(S(=O)(=O)Nc3cscn3)cc2C)c1CN(C)C(C)C` [Example 18, 2-fluoro-4-((6-fluoro-2-((isopropyl(methyl)amino)methyl)-3-methoxybenzyl)amino)-5-methyl-N-(thiazol-4-yl)benzenesulfonamide 2,2,2-trifluoroacetate]: the IC50 in data set [1] (setting [5]) is 11.8 µM; in data set [2], greater than 30 µM; in data set [3], 0.016 µM.
`Cc1c(NCc2c(F)cccc2CN2C3CCC2CC3)ccc(S(=O)(=O)Nc2ccon2)c1F` [Example 5, 4-((2-((7-azabicyclo[2.2.1]heptan-7-yl)methyl)-6-fluorobenzyl)amino)-2-fluoro-N-(isoxazol-3-yl)-3-methylbenzenesulfonamide 2,2,2-trifluoroacetate]: the IC50 in data set [2] is greater than 30 µM; in data set [4], greater than 30 µM; in data set [3], 0.617 µM.
With `COc1ccc(F)c(CNc2cc(F)c(S(=O)(=O)Nc3cscn3)cc2Cl)c1CN(C)C(C)C` [Example 17, 5-chloro-2-fluoro-4-((6-fluoro-2-((isopropyl(methyl)amino)methyl)-3-methoxybenzyl)amino)-N-(thiazol-4-yl)benzenesulfonamide 2,2,2-trifluoroacetate], the values for the IC50 in data set [1] (setting [5]), in data set [2] and in data set [3] were 16.3 µM, greater than 30 µM and 0.012 µM, respectively.
Turning to `O=S(=O)(Nc1cscn1)c1ccc(NCc2c(F)cccc2CN2C3CCC2CC3)c(F)c1F` [Example 3, 4-((2-((7-azabicyclo[2.2.1]heptan-7-yl)methyl)-6-fluorobenzyl)amino)-2,3-difluoro-N-(thiazol-4-yl)benzenesulfonamide], the IC50 in data set [2] is greater than 30 µM; in data set [4] it was greater than 30 µM; in data set [3], 0.142 µM.
